Source: US20040102524A1, “Method of treatment” (priority 2001, published 2004)

System: uric acid levels
Assay: Clinical data for reduction of uric acid levels in human volunteers
Format: in vivo
Set-up: Mean uric acid 24 hr. after dose: unit not given here
Conditions: for mean uric acid blood level reduced by: 24 hours after administration vs baseline; for % at 24 hrs. (mean blood level of uric acid at 24 hours after administration as a percentage of the baseline level) / Mean uric acid 24 hr. after dose: oral tablets; for Mean uric acid 24 hr. after dose: plasma
Method: Test subjects were orally administered tablets containing N-propanesulfonyl-6-[N-(5-bromo-2-(cyclopropylmethoxy)benzyl)-N-ethylamino]pyridazine-3-carboxamide, or a matching placebo was administered orally as tablets, with 200 mL of distilled water. The subjects were directed to remain semi-recumbent for six hours after dosing. A 4.9 mL sample of blood was taken into a tube containing lithium heparin anticoagulant, and plasma was separated by centrifugation for the clinical chemistry analysis at the pretrial medical examinations, pre-dose, 6 hours and 24 hours after dosing on each trial day. Concentrations of the uric acid were determined by standard analytical techniques.
The listed percentages represent mean blood level of uric acid at 24 hours after administration of the test substance (active compound or placebo) as a percentage of the baseline uric acid level measured prior to administration. […] In particular at a dose of 400 mg the mean uric acid blood level is reduced by 29%. Doses of 800 mg and 1600 mg likewise reduce blood levels of uric acid by 33% and 42% respectively.

CCCS(=O)(=O)NC(=O)c1ccc(N(CC)Cc2cc(Br)ccc2OCC2CC2)nn1 [N-propanesulfonyl-6-[N-(5-bromo-2-(cyclopropylmethoxy)benzyl)-N-ethylamino]pyridazine-3-carboxamide]
mean uric acid blood level reduced by (dose of 400 mg): 29%
mean uric acid blood level reduced by (dose of 800 mg): 33%
mean uric acid blood level reduced by (dose of 1600 mg): 42%
% at 24 hrs. (mean blood level of uric acid at 24 hours after administration as a percentage of the baseline level) (dose 1 mg): 98.8%
Mean uric acid 24 hr. after dose (dose 1 mg, n=4): 280
% at 24 hrs. (mean blood level of uric acid at 24 hours after administration as a percentage of the baseline level) (dose 5 mg): 90.1%
Mean uric acid 24 hr. after dose (dose 5 mg, n=4): 245
% at 24 hrs. (mean blood level of uric acid at 24 hours after administration as a percentage of the baseline level) (dose 25 mg): 93.2%
Mean uric acid 24 hr. after dose (dose 25 mg, n=4): 237
% at 24 hrs. (mean blood level of uric acid at 24 hours after administration as a percentage of the baseline level) (dose 100 mg): 90.0%
Mean uric acid 24 hr. after dose (dose 100 mg, n=4): 286
% at 24 hrs. (mean blood level of uric acid at 24 hours after administration as a percentage of the baseline level) (dose 200 mg): 85.2%
Mean uric acid 24 hr. after dose (dose 200 mg, n=4): 268
% at 24 hrs. (mean blood level of uric acid at 24 hours after administration as a percentage of the baseline level) (dose 400 mg): 70.6%
Mean uric acid 24 hr. after dose (dose 400 mg, n=4): 242
% at 24 hrs. (mean blood level of uric acid at 24 hours after administration as a percentage of the baseline level) (dose 800 mg): 66.7%
Mean uric acid 24 hr. after dose (dose 800 mg, n=4): 237
% at 24 hrs. (mean blood level of uric acid at 24 hours after administration as a percentage of the baseline level) (dose 1600 mg): 57.6%
Mean uric acid 24 hr. after dose (dose 1600 mg, n=6): 168
